From patent US20240374749A1, “ANTIBODY-EXATECAN CONJUGATES” (Glykos Finland Oy, priority 2023, published 2024) come the findings set out here.

Read-outs that look alike come from different tables or passages of the source.

Series [1] deals with HER2+ SK-BR-3 breast cancer cells. The series is described as follows: In vitro cytotoxicity assay (PrestoBlue), Example 9 (FIG. 5). It is filed as cell-based. The settings on record: Homo sapiens. Here is the method:
(§1) HER2+ SK-BR-3 breast cancer cells (ATCC), HCC1954 breast cancer cells (CRL-2338, ATCC), JIMT-1 breast cancer cells (DSMZ) and SKOV-3 ovarian cancer cells (ATCC) were cultured essentially according to the providers' instructions. After incubation with ADCs, cell viability was determined using PrestoBlue reaction using manufacturer's instructions. Cell viability data data was transferred to GraphPad Prism to determine IC50 values. Exatecan (mesylate salt) and DXd (free deruxtecan payload) were purchased from MedChemExpress.

In series [2] the test system is HER2+ HCC1954 breast cancer cells. The series can be described thus: In vitro cytotoxicity assay (PrestoBlue), Example 9 (FIG. 6). To be noted: Homo sapiens. It is filed as cell-based. As for the experimental part: as §1
In series [3] the test system is HER2+ JIMT-1 breast cancer cells. The series is described as follows: In vitro cytotoxicity assay (PrestoBlue), Example 9 (FIG. 7). It is filed as cell-based. To be noted: Homo sapiens. As for the experimental part:
as §1

The subject of series [4] is HER2+ SKOV-3 ovarian cancer cells. The series is described as follows: In vitro cytotoxicity assay (PrestoBlue), Example 9 (FIG. 8). It is filed as cell-based. To be noted: Homo sapiens, SK-OV-3. As for the experimental part:
as §1

In another series the test system is MOLM-13 cells. The series can be described thus: MOLM-13 xenograft model. The settings on record: for signs of toxicity: single i.v. dose, clinical signs and general behavior. As for the experimental part: The study was performed at the TCDM, University of Turku, Finland, according to the appropriate ethical committee approval. Cells for inoculation to mice were prepared in vigorous exponential growth phase. 2 million MOLM-13 cells in 50% Matrigel were inoculated s.c. to the flank of each mouse (female athymic nude mice between 8-10 weeks of age). Clinical signs and general behavior of the animals were observed regularly. […] Tumor growth was followed by palpation. After caliper measurement, tumor volume was calculated according to 0.5×length×width^2. […] Mice were evenly divided into study groups, 6 mice in each group, so that each group received similar distribution of different-sized tumors and the average tumor volumes were similar in each group. Intravenous (i.v.) treatment in PBS was given once on day 1 of treatment as a single dose regimen (on day 8 after tumor inoculation). The experiment lasted to day 46 after treatment (day 54 after tumor inoculation).

Series [5] is described as follows: Aggregation status by size-exclusion chromatography (SEC-HPLC). It is filed as physicochemical. As for the experimental part:
Aggregation status of FLExM01 was evaluated by size-exclusion chromatography (SEC-HPLC; FIG. 2A), showing very low aggregation with high-molecular weight aggregate level of 1.6%. Drug-to-Antibody Ratio (DAR) was determined by reversed-phase chromatography (RP-HPLC; FIG. 2B), showing homogeneous conjugation to DAR=8.
(In general: SEC sorts molecules by how far they enter the pores of the column.)

Series [6] can be described thus: Hydrophobic interaction chromatography (HIC-HPLC) of flanvotumab ADCs. It is filed as physicochemical. The settings on record: closer to naked antibody = more hydrophilic. The text has this: Flanvotumab-deruxtecan ADC was generated essentially similarly as FLExM above using deruxtecan linker-payload (DxM, MedChemExpress, Sweden; Scheme 1.4).
HIC-HPLC analysis using TSKgel ButylNPR column was done with Äkta HPLC purifier system.

In the next series the test system is SK-MEL-30 melanoma cells. The series can be described thus: SK-MEL-30 human melanoma xenograft model. Type of series: in vivo, athymic mice. To be noted: single i.v. 10 mg/kg dose. Here is the method: SK-MEL-30 human melanoma xenograft model (FIG. 4A): The animal model were performed at the University of Helsinki, Finland, according to the appropriate ethical committee approval. SK-MEL-30 melanoma cells, 2 million cells/mouse, were inoculated subcutaneously (s.c.) to athymic mice.
(In general: In xenograft studies the graft and the host belong to different species.)

Series [7] in a line: Maleimide self-stabilization in storage formulation. Type of series: physicochemical. The settings on record: storage formulation of PBS pH 7.4.
Setting [8] is: single i.v. 10 mg/kg dose, day 54 after inoculation.

A word on the IC50: it is the midpoint of a concentration-inhibition curve. Take `CC[C@@]1(O)C(=O)OCc2c1cc1n(c2=O)Cc2c-1nc1cc(F)c(C)c3c1c2[C@@H](NC(=O)CO)CC3` [DXd, 2-hydroxyacetoyl exatecan]: the IC50 is 4.3 nM in [1], 5 to 8 nM in series [2] (HCC1954), 18 nM in series [3] and 9.5 nM in series [4].
`CC[C@@]1(O)C(=O)OCc2c1cc1n(c2=O)Cc2c-1nc1cc(F)c(C)c3c1c2[C@@H](N)CC3` [exatecan, Exatecan]: the concentration for half-maximal inhibition (IC50) is 0.87 nM in series [1]; 5 to 8 nM in [2] (HCC1954 cells, FIG. 6, read-out: IC50); 3.1 nM in series [3]; 4.7 nM in series [4].
On to “LNDxM: lintuzumab-deruxtecan ADC DAR=8, maleimides not stabilized; 01-03 are batches [reference compound]”, for which, in the series on MOLM-13 cells (single i.v. 10 mg/kg dose), the “deaths due to tumor growth, %” value is on record as 17%. Also, in the series on MOLM-13 cells (setting [8]), the “tumor-free mice at the end of the study (mice out of 6)” value is 2/6 and the “tumor-free mice at the end of the study, %” value is 33%. Also, the “deaths due to tumor growth (mice out of 6)” value with MOLM-13 cells (single i.v. 10 mg/kg dose, death on day 47 after tumor inoculation) was “⅙”. For the same molecule, the signs of toxicity result in the series with MOLM-13 cells is given as “No signs of toxicity were recorded”.
As for “Lintuzumab: humanized recombinant antibody produced in CHO cells; anti-CD33”, in the series with MOLM-13 cells (single i.v. 10 mg/kg dose, s.c. tumors about 120 mm^3), the “tumor growth inhibition (in words)” value is “only slight inhibitory activity to tumor growth”. Also, the signs of toxicity entry in the series with MOLM-13 cells is “No signs of toxicity were recorded”.

B1: FLExM01: flanvotumab-exatecan ADC with ExM linker-payload, DAR≈8 (conjugate, chains of the INN, looked up)
VH: QVQLVQSGSELKKPGASVKISCKASGYTFTSYAMNWVRQAPGQGLESMGWINTNTGNPTYAQGFTGRFVFSMDTSVSTAYLQISSLKAEDTAIYYCAPRYSSSWYLDYWGQGTLVTVSS
VL: EIVLTQSPATLSLSPGERATLSCRASQSVSSYLAWYQQKPGQAPRLLIYDASNRATGIPARFSGSGSGTDFTLTISSLEPEDFAVYYCQQRSNWLMYTFGQGTKLEIK
modifications: exatecan ExM linker-payload, DAR 8
Turning to B1, the “high-molecular weight aggregate level” value in [5] (SEC-HPLC) was found to be 1.6%. Besides, in series [6], the HIC-HPLC elution volume was found to be 6.5 mL. Further, the toxicities observed result in the series on SK-MEL-30 melanoma cells is “No toxicities were observed”. Besides, the “tumor growth inhibition (in words)” value in the series on SK-MEL-30 melanoma cells (s.c. tumors about 200 mm^3) is “inhibited markedly more in the ADC-treated mice than either the antibody-treated or non-treated mice”. Further, the “maleimide self-stabilization (in words)” value in [7] is “self-stabilized by maleimide hydrolysis”.

B2: Flanvotumab: naked antibody, parent of the anti-TYRP-1 ADC (antibody, chains of the INN, looked up, V domains shown)
VH: QVQLVQSGSELKKPGASVKISCKASGYTFTSYAMNWVRQAPGQGLESMGWINTNTGNPTYAQGFTGRFVFSMDTSVSTAYLQISSLKAEDTAIYYCAPRYSSSWYLDYWGQGTLVTVSS
VL: EIVLTQSPATLSLSPGERATLSCRASQSVSSYLAWYQQKPGQAPRLLIYDASNRATGIPARFSGSGSGTDFTLTISSLEPEDFAVYYCQQRSNWLMYTFGQGTKLEIK
For the molecule B2, the toxicities observed entry in the series on SK-MEL-30 melanoma cells was “No toxicities were observed”.

B3: FLDxM01: Flanvotumab-deruxtecan ADC, DAR≈8 (conjugate, chains of the INN, looked up)
VH: QVQLVQSGSELKKPGASVKISCKASGYTFTSYAMNWVRQAPGQGLESMGWINTNTGNPTYAQGFTGRFVFSMDTSVSTAYLQISSLKAEDTAIYYCAPRYSSSWYLDYWGQGTLVTVSS
VL: EIVLTQSPATLSLSPGERATLSCRASQSVSSYLAWYQQKPGQAPRLLIYDASNRATGIPARFSGSGSGTDFTLTISSLEPEDFAVYYCQQRSNWLMYTFGQGTKLEIK
modifications: deruxtecan, DAR 8
In the case of B3, the “aggregates (in words)” value in series [5] (MALDI-TOF MS, SEC-HPLC and RP-HPLC) is given as “low aggregates”. In addition, the HIC-HPLC elution volume in series [6] stood at 7.8 mL.
